The subject of data set [1] is POLCO—Wild buckwheat (Polygonum convolvulus). Kind of data set: General postemergence herbicidal activity, wild buckwheat. The settings on record: Fallopia convolvulus, post-emergence, 336 h; post-emergent, rate 140 g ai/ha, visual score after 14 days (0 no injury, 100 complete kill); read-out: % Growth Reduction POLCO. Format: in vivo. The protocol: (§1) Seeds or nutlets of the desired test plant species were planted in Sun Gro MetroMix® 306 planting mixture, which typically has a pH of 6.0 to 6.8 and an organic matter content of about 30 percent, in plastic pots with a surface area of 64 square centimeters. When required to ensure good germination and healthy plants, a fungicide treatment and/or other chemical or physical treatment was applied. The plants were grown for 7-21 days in a greenhouse with an approximate 15 hour photoperiod which was maintained at about 23-29° C. during the day and 22-28° C. during the night. Nutrients and water were added on a regular basis and supplemental lighting was provided with overhead metal halide 1000-Watt lamps as necessary. The plants were employed for testing when they reached the first or second true leaf stage.
(§2) A weighed amount, determined by the highest rate to be tested, of each test compound was placed in a 25 mL glass vial and was dissolved in 4 mL of a 97:3 v/v (volume/volume) mixture of acetone and dimethyl sulfoxide (DMSO) to obtain concentrated stock solutions. […] The concentrated stock solutions obtained were diluted with 20 mL of an aqueous mixture containing acetone, water, isopropyl alcohol, DMSO, Atplus 411F crop oil concentrate, and Triton X-155 surfactant in a 48.5:39:10:1.5:1.0:0.02 v/v ratio to obtain spray solutions containing the highest application rates. Additional application rates were obtained by serial dilution of 12 mL of the high rate solution into a solution containing 2 mL of 97:3 v/v (volume/volume) mixture of acetone and DMSO and 10 mL of an aqueous mixture containing acetone, water, isopropyl alcohol, DMSO, Atplus 411F crop oil concentrate, and Triton X-155 surfactant in a 48.5:39:10:1.5:1.0:0.02 v/v ratio to obtain ½X, ¼X, ⅛X and 1/16X rates of the high rate. Compound requirements are based upon a 12 mL application volume at a rate of 187 L/ha. Formulated compounds were applied to the plant material with an overhead Mandel track sprayer equipped with 8002E nozzles calibrated to deliver 187 L/ha over an application area of 0.503 square meters at a spray height of 18 inches […] above the average plant canopy height. Control plants were sprayed in the same manner with the solvent blank.
(§3) The treated plants and control plants were placed in a greenhouse as described above and watered by sub-irrigation to prevent wash-off of the test compounds. After 14 days, the condition of the test plants as compared with that of the untreated plants was determined visually and scored on a scale of 0 to 100 percent where 0 corresponds to no injury and 100 corresponds to complete kill.

Data set [2] has as its system ABUTH—Velvetleaf (Abutilon theophrasti). Description: General postemergence herbicidal activity, velvetleaf. It counts as in vivo. Conditions: post-emergence, 336 h, post-emergent, rate 140 g ai/ha, visual score after 14 days (0 no injury, 100 complete kill), read-out: % Growth Reduction ABUTH. The protocol:
as §1, §2, §3

The subject of data set [3] is ECHCG—Barnyardgrass (Echinochloa crus-galli). Description: General postemergence herbicidal activity, barnyardgrass. It counts as in vivo. The settings on record: post-emergence, 336 h, post-emergent, rate 140 g ai/ha, visual score after 14 days (0 no injury, 100 complete kill), read-out: % Growth Reduction ECHCG. The protocol:
as §1, §2, §3

The subject of data set [4] is CIRAR—Canada thistle (Cirsium arvense). Description: General postemergence herbicidal activity, Canada thistle. It counts as in vivo. The settings on record: post-emergence, 336 h, post-emergent, rate 140 g ai/ha, visual score after 14 days (0 no injury, 100 complete kill), read-out: % Growth Reduction CIRAR. The protocol:
as §1, §2, §3

Data set [5] concerns CHEAL—Common lambsquarters (Chenopodium album). Description: General preemergence herbicidal activity, common lambsquarters. Conditions: pre-emergent, rate 140 g ai/ha, visual score after 20-22 days (0 no injury, 100 complete kill or no emergence), read-out: % Growth Inhibition CHEAL. It counts as in vivo. The source says:
(§4) Seeds of the desired test plant species were planted in a soil matrix prepared by mixing a loam soil (43 percent silt, 19 percent clay, and 38 percent sand, with a pH of about 8.1 and an organic matter content of about 1.5 percent) and sand in a 70 to 30 ratio. The soil matrix was contained in plastic pots with a surface area of 113 square centimeters. When required to ensure good germination and healthy plants, a fungicide treatment and/or other chemical or physical treatment was applied. A weighed amount, determined by the highest rate to be tested, of each test compound was placed in a 25 mL glass vial and was dissolved in 6 mL of a 97:3 v/v (volume/volume) mixture of acetone and DMSO to obtain concentrated stock solutions. […] The stock solutions obtained were diluted with 18 mL of a 0.1% v/v aqueous solution of Tween® 20 surfactant to obtain spray solutions containing the highest application rate. Additional application rates were obtained by serial dilution of 12 mL of the high rate solution into a solution containing 3 mL of 97:3 v/v mixture of acetone and DMSO and 9 mL of the 0.1% v/v aqueous solution of Tween® 20 surfactant to obtain 1⁄2X, 1⁄4X, 1⁄8X and 1/16X rates of the high rate. Compound requirements are based upon a 12 mL application volume at a rate of 187 L/ha. Formulated compounds were applied to the plant material with an overhead Mandel track sprayer equipped with […] nozzles calibrated to deliver 187 L/ha over an application area of 0.503 square meters at a spray height of 18 inches (43 cm) above the soil surface. Control plants were sprayed in the same manner with the solvent blank. The treated pots and control pots were placed in a greenhouse maintained with an approximate 15 hour photoperiod and temperatures of about 23-29° C. during the day and 22-28° C. during the night. Nutrients and water were added on a regular basis and supplemental lighting was provided with overhead metal halide 1000-Watt lamps as necessary. The water was added by top-irrigation. After 20-22 days, the condition of the test plants that germinated and grew as compared with that of the untreated plants that emerged and grew was determined visually and scored on a scale of 0 to 100 percent where 0 corresponds to no injury and 100 corresponds to complete kill or no emergence.

The subject of the next data set is ZEAMX—Corn (Zea mays). Description: General preemergence herbicidal activity, corn. Conditions: pre-emergent, rate 140 g ai/ha, visual score after 20-22 days (0 no injury, 100 complete kill or no emergence), read-out: % Growth Inhibition ZEAMX. Format: in vivo.
From the text: as §4

Data set [6] has as its system SORVU—Common sorghum (Sorghum vulgare). Kind of data set: General preemergence herbicidal activity, common sorghum. Format: in vivo. The settings on record: pre-emergent, rate 140 g ai/ha, visual score after 20-22 days (0 no injury, 100 complete kill or no emergence), read-out: % Growth Inhibition SORVU.
From the text: as §4

Data set [7] deals with ABUTH—Velvetleaf (Abutilon theophrasti). Description: General preemergence herbicidal activity, velvetleaf. Conditions: pre-emergent, rate 140 g ai/ha, visual score after 20-22 days (0 no injury, 100 complete kill or no emergence), read-out: % Growth Inhibition ABUTH. It counts as in vivo.
From the text: as §4

The structures appear in SMILES notation.

Results on 13 molecules are retold here after patent publication US8598085B2, “2-(2-fluoro-substituted phenyl)-6-amino-5-chloro-4-pyrimidinecarboxylates and their use as herbicides” (Dow AgroSciences LLC, priority 2007, dated 2013).

The term melting point denotes the temperature of the solid-liquid transition. The term inhibition denotes the relative decrease from the control value, in per cent.

`COC(=O)c1nc(-c2ccc(Cl)cc2F)nc(N)c1Cl` [Compound 1, 6-Amino-5-chloro-2-(4-chloro-2-fluorophenyl)pyrimidine-4-carboxylic acid methyl ester]: the melting point was in the range of 194 to 196 °C. In addition, the pest or weed control at 140 g/ha in data set [1] amounted to 95%. Further, in data set [2], the pest or weed control at 140 g/ha stood at 100%. For the same molecule, the pest or weed control at 140 g/ha in data set [3] is 90%. Moreover, the pest or weed control at 140 g/ha in data set [4] stood at 100%.

In the case of `COC(=O)c1nc(-c2ccc(Cl)c(F)c2F)nc(N)c1Cl` [Compound 2, 6-Amino-5-chloro-2-(4-chloro-2,3-difluorophenyl)pyrimidine-4-carboxylic acid methyl ester], the melting point fell in the range of 187 to 189 °C. Also, the pest or weed control at 140 g/ha in data set [1] stood at 100%. Further, the pest or weed control at 140 g/ha in data set [2] was 100%. Further, the pest or weed control at 140 g/ha in data set [3] amounted to 95%. Besides, in data set [4], the pest or weed control at 140 g/ha was determined as 100%.

For `COC(=O)c1nc(-c2ccc(C)c(F)c2F)nc(N)c1Cl` [Compound 4, 6-Amino-5-chloro-2-(2,3-difluoro-4-methylphenyl)pyrimidine-4-carboxylic acid methyl ester], the pest or weed control at 140 g/ha in data set [1] was 80%; in [2], 99%; in data set [3] it was 90%; in [4], 60%.

With `COC(=O)c1nc(-c2ccc(C(F)(F)F)cc2F)nc(N)c1Cl` [Compound 5, 6-Amino-5-chloro-2-(2-fluoro-4-trifluoromethylphenyl)pyrimidine-4-carboxylic acid methyl ester], the pest or weed control at 140 g/ha in data set [1] is 80%; in [2] it was 70%; in data set [3] it was 0%; in [4], 85%.

As for `COC(=O)c1nc(-c2ccc(C(F)(F)F)c(F)c2F)nc(N)c1Cl` [Compound 6, 6-Amino-5-chloro-2-(2,3-difluoro-4-trifluoromethylphenyl)pyrimidine-4-carboxylic acid methyl ester], the pest or weed control at 140 g/ha in [1] amounted to 95%; in data set [2], 90%; in [3], 25%; in data set [4] it was 80%.

Take `COC(=O)c1nc(-c2cc(F)c(C)cc2F)nc(N)c1Cl` [Compound 8, 6-Amino-5-chloro-2-(2,5-difluoro-4-methylphenyl)pyrimidine-4-carboxylic acid methyl ester]: the pest or weed control at 140 g/ha in data set [1] came to 60%; in data set [2], 95%; in data set [3], 0%; in [4] it was 45%.

Take `COC(=O)c1nc(-c2ccc(C(F)F)cc2F)nc(N)c1Cl` [Compound 9, 6-Amino-5-chloro-2-(4-difluoromethyl-2-fluorophenyl)pyrimidine-4-carboxylic acid methyl ester]: the pest or weed control at 140 g/ha in [1] stood at 35%; in data set [2] it was 45%; in [3], 0%; in data set [4] it was 40%.

As for `COC(=O)c1nc(-c2cc(Cl)c(Cl)cc2F)nc(N)c1Cl` [Compound 10, 6-Amino-5-chloro-2-(4,5-dichloro-2-fluorophenyl)pyrimidine-4-carboxylic acid methyl ester], the pest or weed control at 140 g/ha in data set [1] was found to be 100%; in [2] it was 90%; in [4], 95%.

On to `Cc1ccc(-c2nc(N)c(Cl)c(C(=O)O)n2)c(F)c1` [Compound 13, 6-Amino-5-chloro-2-(2-fluoro-4-methylphenyl)pyrimidine-4-carboxylic acid], for which the inhibition at 140 g/ha in [5] was found to be 95%; in the data set on ZEAMX—Corn (Zea mays) it was 10%; in [6] it was 50%; in data set [7], 95%.

Regarding `Nc1nc(-c2cc(Cl)c(Cl)cc2F)nc(C(=O)O)c1Cl` [Compound 17, 6-Amino-5-chloro-2-(4,5-dichloro-2-fluorophenyl)pyrimidine-4-carboxylic acid], the pest or weed control at 140 g/ha in data set [1] came to 95%; in data set [2], 85%; in data set [4], 90%.

Consider `Cc1cc(F)c(-c2nc(N)c(Cl)c(C(=O)O)n2)cc1F` [Compound 18, 6-Amino-5-chloro-2-(2,5-difluoro-4-methylphenyl)pyrimidine-4-carboxylic acid], for which the pest or weed control at 140 g/ha turned out to be 40% in [1], 100% in data set [2], 75% in data set [3] and 100% in data set [4].

With `CCOC(=O)c1nc(-c2ccc(Cl)cc2F)nc(N)c1Cl` [Compound 19, 6-Amino-5-chloro-2-(4-chloro-2-fluorophenyl)pyrimidine-4-carboxylic acid ethyl ester], the melting point fell in the range of 131 to 132 °C. Besides, in [1], the pest or weed control at 140 g/ha was 100%. Also, the pest or weed control at 140 g/ha in data set [2] stood at 99%. The pest or weed control at 140 g/ha in [3] worked out at 80%. Further, the pest or weed control at 140 g/ha in [4] stood at 95%.

With `COC(=O)c1nc(-c2cc(F)c(Cl)cc2F)nc(N)c1Cl` [Compound 20, 6-Amino-5-chloro-2-(4-chloro-2,5-difluorophenyl)-pyrimidine-4-carboxylic acid methyl ester], the pest or weed control at 140 g/ha in data set [1] is 100%; in data set [2] it was 99%; in [3], 95%; in data set [4], 95%.
